According to patent US20040224972A1, “Medicinal compositions for concomitant use as anticancer agent” (priority 2000, published 2004):
Structures can show the parent of a compound that is named as a salt. Where two headings read alike, the source gives them in different places.

Key:
[1] = system: Human colon cancer strain HCT15 xenograft; experiment: Combined use of E7070 and MMC in human colon cancer HCT15 xenograft model; type: in vivo; conditions: E7070 QDx5, MMC 4.19 mg/kg/day QDx1; for Toxicity mRBW mean (minimum relative body weight): day of minimum in parentheses
Method: Human colon cancer strain HCT15 (purchased from ATCC) was cultured in RPMI1640 (containing 10% FBS) in a 5% CO2gas incubator until it attained about 80% confluence, and the cells were harvested with trypsin-EDTA and suspended in Hanks balanced solution to prepare a suspension of 5×10^7 cells/ml. 0.1 ml of the cell suspension was implanted subcutaneously in each nude mouse. When the average tumor volume reached 156 mm3 after the implantation, E7070 in a dose of 25 mg/kg/day and/or MMC in a dose of 4.19 mg/kg/day were administered either alone or in combination. E7070was intravenously administered once per day for 5 days (first to fifth days), while MMC was intravenously administered once (first day). After the administration was initiated, the longer and shorter diameters of the tumor were measured at the frequency of 2 times/week with digital calipers (Mitsutoyo), and the tumor volume was calculated according to the following equation.
(§1) Tumor volume=longer diameter of tumor (mm)×shorter diameter of tumor (mm)^2/2
(§2) The items for determination of antitumor effect were the following 2 items:

[2] = system: Human colon cancer strain HCT15 xenograft; conditions: E7070 30 mg/kg/day QDx5, CPT-11 75 mg/kg/day Q4Dx3; for Toxicity mRBW mean (minimum relative body weight): day of minimum in parentheses
Method: Human colon cancer strain HCT15 (purchased from ATCC) was cultured in RPMI1640 (containing 10%FBS) in a 5%CO2gas incubator until it attained about 80% confluence, and the cells were harvested with trypsin-EDTA and suspended in Hanks balanced solution to prepare a suspension of 5×10^7 cells/ml. 0.1 ml of the cell suspension was implanted subcutaneously in each nude mouse. When the average tumor volume reached 182 mm3 after the implantation, E7070 in a dose of 30 mg/kg/day and/or CPT-11 in a dose of 75 mg/kg/day were administered either alone or in combination. E7070was intravenously administered once per day for 5 days (first to fifth days), while CPT-11 was intravenously administered 3 times (once every 4 days, that is, on the first, fifth and ninth days). After the administration was initiated, the longer and shorter diameters of the tumor were measured at the frequency of 2 times/week with digital calipers (Mitsutoyo), and the tumor volume was calculated according to the following equation.
as §1, §2
Tx4: The time in days for tumor size to attain 4 folds of initial size.
(§3) Minimum relative tumor volume (mRTV): Minimum value of relative tumor volume (RTV*)
(§4) *: Tumor volume on n days after first treatment/tumor volume at the start of treatment.

[3] = system: Human colon cancer strain SW620 xenograft; experiment: Combined use of E7070 and CPT-11 in human colon cancer SW620 xenograft model; conditions: E7070 25 mg/kg/day QDx5, CPT-11 62.5 mg/kg/day Q4Dx3
Method: Human colon cancer strain SW620 (purchased from ATCC) was cultured in RPMI1640 (containing 10% FBS) in a 5% Co2gas incubator until it attained about 80% confluence, and the cells were harvested with trypsin-EDTA and suspended in Hanks balanced solution to prepare a suspension of 5×10^7 cells/ml. 0.1 ml of the cell suspension was implanted subcutaneously in each nude mouse. When the average tumor volume reached 226 mm^3 after the implantation, E7070 in a dose of 25 mg/kg/day and/or CPT-11 in a dose of 62.5 mg/kg/day were administered either alone or in combination. E7070 alone was intravenously administered once per day for 5 days (first to fifth days), while CPT-11 alone was intravenously administered 3 times (once every 4 days, that is, on the first, fifth and ninth days). Administration in combination was performed in 3 schedules, that is, simultaneous administration (E7070 on the first to fifth days; CPT-11 on the first, fifth and ninth days), previous administration of E7070 (E7070 on the first to fifth days; CPT-11 on the sixth, tenth and fourteenth days) and previous administration of CPT-11 (E7070 on the tenth to fourteenth days; CPT-11 on the first, fifth and ninth days). After the administration was initiated, the longer and shorter diameters of the tumor were measured at the frequency of 2 times/week with digital calipers (Mitsutoyo), and the tumor volume was calculated according to the following equation.
as §1, §2, §3, §4

[4] = system: Human colon cancer strain Colo320D. M. xenograft; experiment: Combined use of E7070 and 5-FU in human colon cancer Colo320D. M. xenograft model; type: in vivo; conditions: for Toxicity Dead/Treated: E7070 30 mg/kg/day QDx5, 5-FU 60 mg/kg/day Q4Dx3
Source text: Human colon cancer strain Colo320D.

[5] = system: Human breast cancer HBC4 xenograft; experiment: Combined use of E7070 and capecitabine in human breast cancer HBC4 xenograft model; type: in vivo, human cells in nude mouse; conditions: nude mice, s.c. HBC4; E7070 30.625 mg/kg/day (87.5% MTD) day 1-5; capecitabine 1.3125 mmol/kg/day (87.5% MTD) 14 days; combination: E7070 day 1-5, capecitabine day 6-19
Method: When the average tumor volume reached 114 mm3 after the implantation, E7070 in a dose of 30.625 mg/kg/day and/or capecitabine in a dose of 1.3125 mmol/kg/day were administered either alone or in combination.

[6] = Examination of gemcitabine hydrochloride, doxorubicin and taxol for synergistic effect (combined with E7070); conditions: used in the composition with E7070; no data given

SMILES | Toxicity Dead/Treated [1] | Toxicity mRBW mean (minimum relative body weight) [1] | Toxicity Dead/Treated [2] | Toxicity mRBW mean (minimum relative body weight) [2] | Toxicity Dead/Treated [3] | Toxicity mRBW mean (minimum relative body weight) ([3]; day of minimum in parentheses) | Toxicity Dead/Treated [4] | antitumor activity when examined for synergistic effect [6] | further results
CO[C@@]12[C@H](COC(N)=O)C3=C(C(=O)C(C)=C(N)C3=O)N1C[C@@H]1N[C@@H]12 [MMC, [1aS-(1aα,8β,8aα,8bα)]-6-amino-8-[[(aminocarbonyl)oxy]methyl]1,1a,2,8,8a,8b-hexahydro-8a-methoxy-5-methylazirino[2′,3′: 3,4]pyrrolo[1,2-a]indole-4,7-dione] | 0/6 | 0.99 (11) |  |  |  |  |  |  | 
CCc1c2c(nc3ccc(OC(=O)N4CCC(N5CCCCC5)CC4)cc13)-c1cc3c(c(=O)n1C2)COC(=O)[C@]3(O)CC [CPT-11, [1,4′-Bipiperidine]-1′-carboxylicacid (S)-4,11-diethyl-3,4,12,14-tetrahydro-4-hydroxy-3,14-dioxo-1H-pyrano-[3′,4′:6,7]-indolizino[1,2-b]quinolin-9-yl ester Hydrochloride trihydrate] |  |  | 0/6 | 0.94 (7, 10) | 0/6 | 0.99 (8) |  |  | 
NS(=O)(=O)c1ccc(S(=O)(=O)Nc2cccc3c(Cl)c[nH]c23)cc1 [E7070, N-(3-chloro-1H-indol-7-yl)-4-sulfamoylbenzenesulfonamide] | 0/6 | 0.93 (11) | 0/6 | 0.92 (7) | 0/6 | 0.98 (8) | 0/6 |  | Tx4 [5]: 50.0 ± 8.1 days; mRTV mean ± S.D. (minimum relative tumor volume) ([3]; day of minimum in parentheses): 0.76 ± 0.42 (12)
COc1cccc2c1C(=O)c1c(O)c3c(c(O)c1C2=O)C[C@@](O)(C(=O)CO)C[C@@H]3O[C@H]1C[C@H](N)[C@H](O)[C@H](C)O1 [doxorubicin, 10-[(3-amino-2,3,6-trideoxy-α-L-lyxo-hexopyranosyl)oxy]-7,8,9,10-tetrahydro-6,8,11-trihydroxy-8-(hydroxyacetyl)-1-methoxy-(8S-cis)-5,12-naphthacenedione] |  |  |  |  |  |  |  | excellent antitumor activity | 
O=c1[nH]cc(F)c(=O)[nH]1 [5-FU, 5-fluoro-2,4-(1H,3H)-pyrimidinedione] |  |  |  |  |  |  | 0/6 |  | Tx4 (days) mean ± S.D.: time in days for tumor size to attain 4 folds of initial tumor size ([4]; nude mice, s.c. Colo320D. M., E7070 30 mg/kg/day i.v. QDx5, 5-FU 60 mg/kg/day i.v. Q4Dx3, + simultaneous, → sequential): 10.0 ± 0.7 days
Cl.Nc1ccn([C@@H]2O[C@H](CO)[C@@H](O)C2(F)F)c(=O)n1 [gemcitabine hydrochloride, 2′-deoxy-2′,2′-difluoro-cytidine hydrochloride] |  |  |  |  |  |  |  | excellent antitumor activity | 
